Results from patent US11339171B2, “MDM2 inhibitors” (Gan & Lee Pharmaceuticals, priority 2017, dated 2022).
Values joined by “and” are separate entries in the source; they are usually repeats but may differ in a detail not shown here. Equal values may be shown once. Read-outs that look alike come from different tables or passages of the source.

Tests used:
[1] = target: T1, MDM2 (Homo sapiens, UniProt Q00987); experiment: Inhibition test of MDM2-P53 (GST-MDM2, Biotin-P53, Anti-GST-Tb, SA-XL665); format: binding
T1 construct: made in house
Outline: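 HTRF-type assay using 4 nM GST-MDM2 (final), Biotin-P53, SA-XL665 and anti-GST-Tb in PBS with 0.1% BSA, 5 mM DTT and 1 mM AEBSF. Compounds in 5-fold serial dilutions over twelve points; incubation 90 min at 25° C with shaking before plate-reader read-out.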

[2] = Pharmacokinetics in ICR mice after intravenous and intragastric administration; format: in vivo; details: for MRT last: read-out: MRT(0-t); for MRT inf: read-out: MRT(0-∞); for Vd: read-out: Vz; for half-life: read-out: t1/2 (converted)
Outline: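 Male ICR mice aged 6-9 weeks are dosed after an overnight fast, intravenously at 2 mg/kg and orally by gavage at 5 mg/kg. Plasma drug is measured by LC-MS/MS over a 1-2000 ng/ml range.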

[3] = tested on: human osteosarcoma cell line SJSA-1; experiment: Inhibition of proliferation of human osteosarcoma cell line SJSA-1 (DAPI staining, In Cell Analyzer); details: Homo sapiens, SJSA-1, 72 h, read-out: IC50 (nM), inhibitory activity on proliferation of human osteosarcoma cell line SJSA-1, SJSA-1, incubated 72 h
[4] = IV 2 mg/kg, ICR mice, individual animal, 2 mg/kg
[5] = PO 5 mg/kg, ICR mice, individual animal, 5 mg/kg
[6] = male, ICR, mouse, plasma, iv, 2 mg/kg, IV 2 mg/kg, ICR mice, Mean
[7] = male, ICR, mouse, plasma, iv, 2 mg/kg, IV 2 mg/kg, ICR mice, individual animal
[8] = male, ICR, mouse, plasma, po, 5 mg/kg, PO 5 mg/kg, ICR mice, Mean
[9] = male, ICR, mouse, plasma, po, 5 mg/kg, PO 5 mg/kg, ICR mice, individual animal

T1 sequence (Q00987 whole entry): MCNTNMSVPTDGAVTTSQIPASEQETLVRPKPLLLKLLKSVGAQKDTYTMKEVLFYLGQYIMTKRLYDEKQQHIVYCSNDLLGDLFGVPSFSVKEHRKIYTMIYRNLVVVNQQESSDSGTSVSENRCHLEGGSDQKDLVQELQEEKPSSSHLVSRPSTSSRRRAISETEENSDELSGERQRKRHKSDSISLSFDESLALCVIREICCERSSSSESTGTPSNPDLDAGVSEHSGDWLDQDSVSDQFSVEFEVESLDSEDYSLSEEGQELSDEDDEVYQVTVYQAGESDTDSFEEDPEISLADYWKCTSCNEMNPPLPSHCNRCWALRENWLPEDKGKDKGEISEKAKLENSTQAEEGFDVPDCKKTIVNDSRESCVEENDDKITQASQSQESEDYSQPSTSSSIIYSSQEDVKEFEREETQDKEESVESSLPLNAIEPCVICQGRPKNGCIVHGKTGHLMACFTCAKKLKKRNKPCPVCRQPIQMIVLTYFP

Compound: COc1cc(N(C)C)ccc1-c1nc2c(n1C(C)C)[C@@]1(C(=O)Nc3cc(Cl)ccc31)N(c1cc(Cl)ccc1C)C2=O [Example S-23, (S)-6-chloro-5′-(5-chloro-2-methylphenyl)-2′-(4-(dimethylamino)-2-methoxyphenyl)-3′-isopropyl-3′H-spiro[dihydroindole-3,4′-pyrrolo[3,4-d]imidazole]-2,6′(5′H)-dione]
- IC50 [1]: 2.8 nM
- AUC(0-t) [2, 4]: 6172.76 ng·h/mL and 6625.30 ng·h/mL
- AUC(0-∞) [2, 4]: 6427.71 ng·h/mL and 7084.65 ng·h/mL
- CL [2, 4]: 5.19 mL/min/kg and 4.71 mL/min/kg
- Cmax [2, 4]: 3040.32 ng/mL and 3640.21 ng/mL
- MRT(0-t) [2, 4]: 1.50 h and 1.55 h
- MRT(0-∞) [2, 4]: 1.75 h and 1.99 h
- Vz [2, 4]: 0.60 L/kg and 0.64 L/kg
- t1/2 [2, 4]: 1.33 h and 1.57 h
- F* ([2]; PO 5 mg/kg vs IV 2 mg/kg, ICR mice): 43.18%
- AUC(0-t) [2, 5]: 9122.66 ng·h/mL and 7675.41 ng·h/mL
- AUC(0-∞) [2, 5]: 9163.57 ng·h/mL and 7881.03 ng·h/mL
- Cmax [2, 5]: 3316.65 ng/mL and 2730.39 ng/mL
- MRT(0-t) [2, 5]: 2.02 h and 2.08 h
- MRT(0-∞) [2, 5]: 2.05 h and 2.29 h
- Tmax [2, 5]: 0.50 h
- t1/2 [2, 5]: 0.98 h and 1.52 h
- AUC(0-inf) [2, 6]: 8010 ng·h/mL
- clearance [2, 6]: 4.35 mL/min/kg
- AUC(0-t) ([2]; male, ICR, mouse, plasma, iv, 2 mg/kg, IV 2 mg/kg, ICR mice, Mean, read-out: AUC(0-t)): 7420 ng·h/mL
- Cmax ([2]; male, ICR, mouse, plasma, iv, 2 mg/kg, IV 2 mg/kg, ICR mice, Mean, read-out: Cmax): 3490 ng/mL
- MRT last [2, 6]: 1.61 h
- MRT inf [2, 6]: 2.07 h
- Tmax ([2]; male, ICR, mouse, plasma, iv, 2 mg/kg, IV 2 mg/kg, ICR mice, Mean, read-out: Tmax): 0.083 h
- Vd [2, 6]: 0.58 L/kg
- half-life [2, 6]: 1.59 h
- AUC(0-inf) [2, 7]: 10500 ng·h/mL
- clearance [2, 7]: 3.17 mL/min/kg
- AUC(0-t) ([2]; male, ICR, mouse, plasma, iv, 2 mg/kg, IV 2 mg/kg, ICR mice, individual animal, read-out: AUC(0-t)): 9460 ng·h/mL
- Cmax ([2]; male, ICR, mouse, plasma, iv, 2 mg/kg, IV 2 mg/kg, ICR mice, individual animal, read-out: Cmax): 3780 ng/mL
- MRT last [2, 7]: 1.78 h
- MRT inf [2, 7]: 2.46 h
- Tmax ([2]; male, ICR, mouse, plasma, iv, 2 mg/kg, IV 2 mg/kg, ICR mice, individual animal, read-out: Tmax): 0.08 h
- Vd [2, 7]: 0.51 L/kg
- half-life [2, 7]: 1.86 h
- AUC(0-inf) [2, 8]: 8120 ng·h/mL
- AUC(0-t) ([2]; male, ICR, mouse, plasma, po, 5 mg/kg, PO 5 mg/kg, ICR mice, Mean, read-out: AUC(0-t)): 8010 ng·h/mL
- Cmax ([2]; male, ICR, mouse, plasma, po, 5 mg/kg, PO 5 mg/kg, ICR mice, Mean, read-out: Cmax): 2700 ng/mL
- MRT last [2, 8]: 2.15 h
- MRT inf [2, 8]: 2.26 h
- Tmax ([2]; male, ICR, mouse, plasma, po, 5 mg/kg, PO 5 mg/kg, ICR mice, Mean, read-out: Tmax): 0.83 h
- half-life [2, 8]: 1.22 h
- AUC(0-inf) [2, 9]: 7320 ng·h/mL
- AUC(0-t) ([2]; male, ICR, mouse, plasma, po, 5 mg/kg, PO 5 mg/kg, ICR mice, individual animal, read-out: AUC(0-t)): 7240 ng·h/mL
- Cmax ([2]; male, ICR, mouse, plasma, po, 5 mg/kg, PO 5 mg/kg, ICR mice, individual animal, read-out: Cmax): 2050 ng/mL
- MRT last [2, 9]: 2.35 h
- MRT inf [2, 9]: 2.43 h
- Tmax ([2]; male, ICR, mouse, plasma, po, 5 mg/kg, PO 5 mg/kg, ICR mice, individual animal, read-out: Tmax): 1 h
- half-life [2, 9]: 1.15 h
- AUC(0-t) ([2]; male, ICR, mouse, plasma, po, 5 mg/kg, oral intragastric administration 5 mg/kg, read-out: AUC0-t): 8010 ng·h/mL
- IC50 [3]: 1.24 nM
